Reference: US20130123358A1, “Metabolic Benefits to Butyrate as a Chronic Diet Supplement” (priority 2009, published 2013)
Each block holds one compound with its values, some of them ahead of it.

Assays:
[1] = system: HDAC; assay: Histone Deacetylase Assay Kit, inhibition by butyrate isoforms; settings: Histone Deacetylase Assay Kit (Upstate), FIG. 8
Description: Several isoforms of butyrate were purchased (Sigma Aldrich Chemicals, St. Louis, Mo.) and tested for inhibitory activity of HDAC, using a Histone Deacetylase Assay Kit (Upstate Biotechnology, Lake Placid, N.Y.).

[2] = system: HDAC; assay: Histone deacetylase assay on muscle nuclear extracts of treated mice; type: in vivo, mouse; settings: TSA-treated mice on HFD, positive control
Description: Histone deacetylase assay were conducted according to the instruction from the manufacturer (#17-320, Upstate). Briefly, 10 ug of muscle nuclear extract (as an enzyme) was incubated with [3H]-acetyl CoA (#TRK688, Amersham) radio labeled histone H4 peptide (25,000 CPM, as a substrate) at 37° C. for 12 hours by shaking Released [3H]-acetate was measured using a scintillation counter. The nuclear extract was prepared according to a protocol described elsewhere (17). The muscle tissues were collected and snap-frozen in liquid nitrogen within 2 min of cervical dislocation of mice. Tissue samples were stored at −80° C. until further processing. The muscle sample of 200˜300 mg was cut into small pieces on dry ice and homogenized in 1 ml of lysate buffer. After centrifugation at 10,000 rpm for 1 minute at 4° C., the nucleus was pelleted and collected. After being washed, the nucleus pellet was treated with extraction buffer. The supernatant was collected for nuclear protein after centrifugation at 14,000 rpm for 5 minutes at 4° C.
Without wishing to be bound by this theory, one activity of butyrate could be related to inhibition of HDAC. Sodium butyrate inhibits the class I and class II histone deacetylases (HDACs). To test this possibility, HDAC activity was examined in the skeletal muscle of mice at 16 weeks on HFD (FIG. 7G). The assay was conducted with the nuclear extracts of muscle samples. […]

[3] = system: C57BL/6J mice on high fat diet; assay: TSA in HFD-fed mice (body weight, ITT, insulin signaling, muscle fiber); type: in vivo, mouse; settings: TSA 0.6 ug/kg/day i.p.
Description: Sodium butyrate was administrated through dietary supplementation. Sodium butyrate (#303410, Sigma) was incorporated into the HFD evenly through blending the diet and sodium butyrate together at 400 rpm in a food processor. Sodium butyrate (50 g) was used in 1 kg diet to reach a dose of 5% w/w. The sodium butyrate containing diet was pelleted and stored in a −20° C. freezer. Trichostatin A (TSA) (T-1052, A.G. Scientific Inc. San Diego, Calif.) was dissolved in DMSO, and diluted in 0.9% saline at 2:98 ratio. The TSA solution (200 ul) was administrated by intra-peritoneal (i.p.) injection to reach a dose of […]. The control mice were administrated with the same volume of vehicle. 50 ml of tributyrin (#113026, Sigma) was incorporated into one kilogram of Chow diet in powder to reach a dose of 5% w/w in mice.
Trichostatin A (TSA) is a well-established HDAC inhibitor that is frequently used in the study of HDACs. The data presented above indicate that the metabolic activity of butyrate may be in part related to inhibition of HDACs. TSA activity was examined in the same model of murine obesity. TSA was administrated through daily i.p. injection during HFD feeding to C57BL/6J mice. The control mice were injected with an identical volume of PBS.
The mice at 5 weeks in age were fed HFD to induce obesity, and TSA was administrated at the dose of 0.6 ug/kg/day. The effects of TSA treatment were tested after 12-13 weeks. […] FIG. 11C indicates the insulin signaling in the gastrocnemius muscle. The muscle was isolated after insulin (0.75 U/kg) injection for 30 minutes and used to prepare whole cell lysate for immunoblot. IRS-1 and Akt were examined for tyrosine (Y632) and serine (S473) phosphorylation.
In addition, the vastus laterais muscle was isolated from the mice at 13 weeks on HFD, and used to make serial cryostat sections of muscle. The muscle slides made from vastus lateralis, gastrocnemius (gastr.) and soleus muscle were stained with antibody against the type I myosin heavy chain in the oxidative fiber. The photograph was taken at 20× magnification. The whole cell lysate was prepared from gastrocnemius muscle and analyzed in an immunoblot. PGC-1α, type I myosin heavy chain (Myosin) and myoglobin were blotted with specific antibodies, and the results shown in FIG. 11D. The results in FIGS. 11A-11D are the mean±SE (n=8 in each group). *P<0.05 (vs. control).

[4] = system: C57BL/6J mice on chow diet; assay: Amyl butyrate in mice on chow diet for 4 months; type: in vivo, mouse; settings: amyl butyrate 5 g/kg BW/day in chow diet
Description: Amyl butyrate was administrated at 5 g/kg BW/day in C57BL/6J mice for 4 months. The amyl butyrate was added to the chow diet. […] FIGS. 14B and 14C show the body fat and muscle content measured by NMR as described above. […] In FIGS. 14A-14E, values are the mean±SE (n=7). *P<0.05, **P<0.001 compared to the control by Student's t test.

[5] = system: ob/ob mice; assay: Tributyrin in ob/ob genetically obese mice; type: in vivo, mouse; settings: tributyrin 5 g/kg body weight/day in chow diet
Description: Male C57BL/6J (4 weeks in age) and ob/ob mice (4 weeks in age) were purchased from the Jackson Laboratory (Bar Harbor, Me.). After one week quarantine, the C57BL/6J mice were fed on the high fat diet (HFD, D12331, Research Diets, New Brunswick, N.J.), which contains 58% calories in fat. The ob/ob mice were fed on Chow diet (5001, Lab Diet) that contains 13.4% calories in fat. All of the mice were housed in the animal facility with a 12:12-h light-dark cycle and constant temperature (22-24° C.). The mice were free to access water and diet. All procedures were performed in accordance with National Institute of Health guidelines for the care and use of animals and approved by the Institute Animal Care and Use Committee at the Pennington Biomedical Research Center.
Sodium butyrate was administrated through dietary supplementation. Sodium butyrate (#303410, Sigma) was incorporated into the HFD evenly through blending the diet and sodium butyrate together at 400 rpm in a food processor. Sodium butyrate (50 g) was used in 1 kg diet to reach a dose of 5% w/w. The sodium butyrate containing diet was pelleted and stored in a −20° C. freezer. […]
To test effect of different forms of butyric acid, tributyrin was used in the ob/ob genetically obese mice model. […] After 2 weeks, body weight was measured and an insulin tolerance test was given. […]

inhibitory activity of HDAC [1]: inhibited HDAC
Compound: CC(C)C(O)C(=O)O (stereo not shown) [2-hydroxy-3-methylbutanoic acid]

Compound: CC(/C=C/C(=O)NO)=C\[C@@H](C)C(=O)c1ccc(N(C)C)cc1 [TSA, Trichostatin A]
HDAC activity in skeletal muscle [2]: decreased
body weight, less than control ([3]; 12 weeks on HFD): 16%
insulin tolerance (ITT) ([3]; 12 weeks on HFD, 4 hour fast): significantly improved
expression of type I myosin heavy chain in gastrocnemius and soleus (histology) ([3]; 13 weeks on HFD): increased
oxidative fiber ratio in skeletal muscle ([3]; 13 weeks on HFD): increased
insulin-induced signaling (IRS-1 Y632, Akt S473 phosphorylation) in gastrocnemius muscle ([3]; 30 minutes after insulin 0.75 U/kg): significantly improved
PGC-1α protein in gastrocnemius muscle ([3]; immunoblot): all increased
myoglobin protein in gastrocnemius muscle ([3]; immunoblot): all increased
type I myosin heavy chain protein in gastrocnemius muscle ([3]; immunoblot): all increased

Compound: CCCC(=O)OC(C)c1ccccc1 (stereo not shown) [a-methylbenzyl butyrate]
inhibitory activity of HDAC [1]: inhibited HDAC

inhibitory activity of HDAC [1]: inhibited HDAC
Compound: CCCCCOC(=O)CCC [amyl butyrate]
body weight gain [4]: prevented body weight gain
insulin resistance (fasting glucose and ITT) [4]: protected the mice from insulin resistance
body fat gain ([4]; NMR): prevented fat gain
lean body mass ([4]; NMR): without affecting lean body mass

inhibitory activity of HDAC [1]: inhibited HDAC
Compound: CCCC(=O)OCc1ccccc1 [benzyl butyrate]

inhibitory activity of HDAC [1]: inhibited HDAC
Compound: CCCCOC(=O)CCC [butyl butyrate]

inhibitory activity of HDAC [1]: inhibited HDAC
Compound: CCCCCCCOC(=O)CCC [heptyl butyrate]

inhibitory activity of HDAC [1]: inhibited HDAC
Compound: CCCCCCOC(=O)CCC [hexyl butyrate]

inhibitory activity of HDAC [1]: inhibited HDAC
Compound: CCCC(=O)OCC(C)C [isobutyl butyrate]

Compound: CCCC(=O)OC [methyl butyrate]
inhibitory activity of HDAC [1]: inhibited HDAC

Compound: CCCC(=O)OCCc1ccccc1 [pennetyl butyrate]
inhibitory activity of HDAC [1]: inhibited HDAC

Compound: CCCC(=O)OCC(COC(=O)CCC)OC(=O)CCC [tributyrin]
weight gain ([5]; 2 weeks, vs control): significantly reduced
insulin sensitivity (ITT) ([5]; 4 hours fasting): preserved
